Consider 6 molecules from US20210352895A1, “SYNERGISTIC PESTICIDAL COMPOSITIONS AND METHODS FOR DELIVERY OF ACTIVE INGREDIENTS” (0903608 B.C. Ltd., priority 2018, published 2021).

Values joined by “and” are separate entries in the source; they are usually repeats but may differ in a detail not shown here. Equal entries are not always repeated. Where two headings read alike, the source gives them in different places.

Series [1] concerns Trichoplusia ni. The experiment in a line: In-planta insecticidal efficacy of Pylon (chlorfenapyr) with unsaturated aliphatic acids on sprayed green cabbage plants, Colby synergy factor. As to conditions: 0.06 mg/mL aliphatic acid (salt). The class given is in vivo, Trichoplusia ni (cabbage looper). On the procedure: A stock solution for the potassium salt of (2E,4E)-2,4-hexadienoic acid was prepared by dissolving the salt in water to form a 20 mg/mL (20,000 ppm) solution. […] Each experiment was repeated at least 3 times.
(§1) While for SF<1, antagonism is present and for SF=1, the efficacy of the compounds is merely additive.

Series [2] concerns Trichoplusia ni. The experiment in a line: In-vitro insecticidal efficacy of Pylon (chlorfenapyr) with unsaturated aliphatic acids in artificial diet, Colby synergy factor. The class given is in vivo, Trichoplusia ni (cabbage looper). On the procedure:
A stock solution was prepared for each of trans-2-hexenoic acid and trans-3-hexenoic acid (both available from Sigma-Aldrich, St. Louis, Mo., USA), by dissolving each exemplary unsaturated aliphatic acid in 100% dimethylsulfoxide (DMSO) at a concentration of 20 mg/mL (20,000 ppm). A stock solution for the potassium salt of (2E,4E)-2,4-hexadienoic acid was prepared by dissolving the salt in water to form a 20 mg/mL (20,000 ppm) solution.
An artificial diet suitable for Trichoplusia ni (cabbage looper caterpillar) was prepared according to the modified McMorran artificial diet recipe known in the entomology field (containing agar, casein, potassium hydroxide, alphacel, Wesson's salt mix, sugar, toasted wheat germ, choline chloride, ascorbic acid, methyl paraben, aureomycin, linseed oil and vitamin solution).
The treated artificial diet was then used to fill each well of a 24-well treatment plate with approximately 0.5 mL of artificial diet, which was allowed to solidify at room temperature and stored overnight at approximately 4 C. […] Each experiment contained 3 replicates, and was repeated at least 3 times.
as §1

The subject of another series is Botrytis cinerea. The experiment in a line: Synergistic Growth Inhibition Assay (MIC / FIC index, resazurin, 96-well) on Botrytis cinerea. The class given is cell-based. The conditions noted are these: for MIC: 48 h, Compound B alone, read-out: MIC (B). As for the experimental part:
(§2) In some embodiments, the synergistic action between the pesticidal active ingredient, and the at least one C4-C10 (or alternatively C11 or C12) saturated or unsaturated aliphatic acid components of the pesticidal compositions according to embodiments of the present disclosure was tested using a Synergistic Growth Inhibition Assay, which is derived from and related to a checkerboard assay as is known in the art for testing of combinations of antimicrobial agents. In the Synergistic Growth Inhibition Assay used in accordance with some embodiments of the present disclosure, multiple dilutions of combinations of pesticidal active ingredient and at least one C4-C10 saturated or unsaturated aliphatic acid agents are tested in individual cells for inhibitory activity against a target pest or pathogenic organism. In one such embodiment, the combinations of pesticidal active ingredient and C4-C10 (or alternatively C11 or C12) saturated or unsaturated aliphatic acid agents may preferably be tested in decreasing concentrations. In a further such embodiment, the combinations of pesticidal active ingredient and C4-C10 (or alternatively C11 or C12) saturated or unsaturated aliphatic acid agents may be tested in increasing concentrations. These multiple combinations of the pesticidal active ingredient and at least one C4-C10 (or alternatively C11 or C12) saturated or unsaturated aliphatic acid agents may be prepared in 96-well microtiter plates. In one such embodiment, the Synergistic Growth Inhibition Assay then comprises rows which each contain progressively decreasing concentrations of the pesticidal active ingredient and one or more C4-C10 (or alternatively C11 or C12) saturated or unsaturated aliphatic acid agents to test for the MIC of the agents in combination at which growth of the target pest or pathogen is inhibited. Thus, each well of the microtiter plate is a unique combination of the two agents, at which inhibitory efficacy of the combination against the target pest or pathogen can be determined.
(§3) In one embodiment according to the present disclosure, for each row of microtiter cells in the Synergistic Growth Inhibition Assay, the FIC index is calculated from the lowest concentration of the pesticidal active ingredient and one or more C4-C10 saturated or unsaturated aliphatic acid agents necessary to inhibit growth of a target pest or pathogen. The FIC of each component is derived by dividing the concentration of the agent present in that well of the microtiter plate by the minimal inhibitory concentration (MIC) needed of that agent alone to inhibit growth of the target pest or pathogen. The FIC index is then the sum of these values for both agents in that well of the microtiter plate. The FIC index is calculated for each row as follows:
(§4) FICindex=MICa/MICA+MICb/MICB
(§5) Fractional inhibitory concentration indices may then used as measure of synergy. […] When the FIC index is equal to 1, the combination is additive.
(§6) Then, serial dilutions of these initial compositions in successive wells in the row of the microtiter plate were used to assay the pesticidal composition under the same conditions to determine the concentration of the composition combining the two agents corresponding to the microtiter well in which growth inhibition of the target pest or organism ceases.
Similarly to as described above, Resazurin was used as an indicator of growth or inhibition of growth of Botrytis cinerea in the exemplary Synergistic Growth Inhibition Assay. In addition to the color change of the resazurin, an optical or visual examination of the microtiter well may also be made to additionally determine the presence of growth or inhibition of growth of the Botrytis cinerea.
(The colour change of resazurin is a common sign of viable cells or microbes.)

The subject of the next series is Sclerotinia sclerotiorum. Put plainly: Synergistic Growth Inhibition Assay (MIC / FIC index, resazurin, 96-well) on Sclerotinia sclerotiorum. As to conditions: for MIC (A): Compound A alone. The class given is cell-based. As for the experimental part:
as §2, §3, §4, §5, §6
Similarly to as described above, Resazurin was used as an indicator of growth or inhibition of growth of Sclerotinia sclerotiorum in the exemplary Synergistic Growth Inhibition Assay. In addition to the color change of the resazurin, an optical or visual examination of the microtiter well may also be made to additionally determine the presence of growth or inhibition of growth of the Sclerotinia sclerotiorum.

In the next series the test system is Alternaria solani. The experiment in a line: Synergistic Growth Inhibition Assay (MIC / FIC index) on Alternaria solani. The class given is cell-based. The conditions noted are these: Alternaria solani; for MIC: 7 days incubation. On the procedure:
as §2, §3, §4, §5, §6
Alternatively, other suitable representative pest or pathogen organisms may be used to determine synergy of combinations of pesticidal active ingredient agents and one or more C4-C10 (or alternatively C11 or C12) saturated or unsaturated aliphatic acid agents in accordance with embodiments of the present disclosure. For example, other representative fungal pathogens may be used, such as but not limited to Leptosphaeria maculans, Sclerotinia spp. and Verticillium spp.

Another series deals with Fusarium oxysporum. Put plainly: Synergistic Growth Inhibition Assay (MIC / FIC index, resazurin, 96-well) on Fusarium oxysporum. The class given is cell-based. The conditions noted are these: for MIC: 48 h, read-out: MIC (B), Compound B alone; for MIC (A): Compound A alone. On the procedure:
as §2, §3, §4, §5, §6
Resazurin dye (also known as Alamar blue dye) was used as an indicator to determine the presence of growth or inhibition of growth of Fusarium oxysporum in the wells of the 96 well microtiter plates used in the exemplary Synergistic Growth Inhibition Assay. In addition to the color change of the resazurin dye in the presence of growth of the Fusarium oxysporum, an optical or visual examination of the microtiter well may also be made to additionally determine the presence of growth or inhibition of growth of the Fusarium oxysporum.

A short description of series [3]: Solubility / effective solubilized concentration in 10% DMSO/90% PDB by HPLC. The conditions noted are these: DMSO stock diluted 10-fold in PDB; verified by HPLC. On the procedure: This solution was diluted 10-fold in potato dextrose broth (PDB) to give a concentration of 0.05 mg/mL in 10% DMSO/90% PDB.
Where [4] appears, read: aliphatic acid (salt) 0.05 mg/mL.
Where [5] appears, read: aliphatic acid (salt) 0.30 mg/mL.
Where [6] appears, read: Compound A alone, Botrytis cinerea, incubation period of 48 hours.

Turning to `CC=CC=CC(=O)[O-].[K+]` [2,4-hexadienoic acid, K-salt], the “Observed Efficacy (%)” value with Trichoplusia ni [1] (after 48 hours) is 13%; in the series with Trichoplusia ni [1] (after 72 hours), 0%.
As for `CC=CC=CC(=O)[O-].[K+]` [2,4-hexenoic acid-Ksalt], in the series on Trichoplusia ni [2] (setting [4]), the “72 hr Obs. Efficacy” value was found to be 4%, the “90 hr Obs. Efficacy” value is 4% and the “120 hr Obs. Efficacy” value came to 4%. In the series with Trichoplusia ni [2] (setting [5]), the “72 hr Obs. Efficacy” value was 13%, the “90 hr Obs. Efficacy” value is recorded as 13% and the “120 hr Obs. Efficacy” value worked out at 4%.
In general, MIC refers to the smallest concentration in the dilution series that meets the test's criterion for growth inhibition. For the molecule `CCCCC(CC)C(=O)O` (stereo not shown) [2-ethylhexanoic acid], the MIC was determined as 312 µg/mL in the series on Botrytis cinerea (Botrytis cinerea, Botrytis cinerea, 48 hours incubation); 312 µg/mL in the series on Botrytis cinerea (Botrytis cinerea, Botrytis cinerea, incubation period of 48 hours); 625 µg/mL with Sclerotinia sclerotiorum (Sclerotinia sclerotiorum, Compound B alone, Sclerotinia sclerotiorum, incubation period of 7 days, read-out: MIC (B)); 312 µg/mL with Alternaria solani (Compound B alone, read-out: MIC (B)).
With `O=C(O)CCCCCCCO` [8-hydroxyoctanoic acid], the MIC with Sclerotinia sclerotiorum (Sclerotinia sclerotiorum, read-out: MIC (B), Compound B alone, Sclerotinia sclerotiorum, 7 days incubation) came to 2500 µg/mL; in the series on Sclerotinia sclerotiorum (Sclerotinia sclerotiorum, read-out: MIC (B), Compound B alone, Sclerotinia sclerotiorum, incubation period of 7 days), 5000 µg/mL; in the series on Fusarium oxysporum (Fusarium oxysporum, Fusarium oxysporum, 48 hours incubation) it was 5000 µg/mL; in the series on Fusarium oxysporum (Fusarium oxysporum, Fusarium oxysporum, incubation period of 48 hours) it was 5000 µg/mL; in the series with Alternaria solani (read-out: MIC (B), Compound B alone) it was 2500 µg/mL.
On to `CO/C=C(/C(=O)OC)c1ccccc1Oc1cc(Oc2ccccc2C#N)ncn1` [Azoxystrobin, reference compound], for which the “MIC (A)” value with Botrytis cinerea (Compound A alone, 48 hours incubation) is 37.5 µg/mL and 75 µg/mL; in the series on Botrytis cinerea (Compound A alone, Botrytis cinerea, incubation period of 2 days) it was 150 µg/mL; with Botrytis cinerea (setting [6]), 150 µg/mL; with Botrytis cinerea (Table 45, Compound A = azoxystrobin, alone or in combination with Compound B, 48 hours incubation), 75 µg/mL; with Sclerotinia sclerotiorum (7 days incubation) it was 150 µg/mL and 75 µg/mL; in the series on Sclerotinia sclerotiorum (Sclerotinia sclerotiorum, 2-fold dilutions, incubation period of 7 days), 150 µg/mL. Moreover, the “MIC (A)” value in the series on Sclerotinia sclerotiorum (Sclerotinia sclerotiorum, incubation period of 7 days) is 150 µg/mL; with Fusarium oxysporum (48 hours incubation) it was 75 µg/mL and 150 µg/mL; with Fusarium oxysporum (Fusarium oxysporum, 2-fold dilutions, incubation period of 48 hours), 150 µg/mL; with Fusarium oxysporum (Fusarium oxysporum, incubation period of 48 hours) it was 150 µg/mL. Besides, in series [3], the “effective solubilized concentration of working stock solution” value was 0.15 mg/mL.
On to `CO/C=C(/C(=O)OC)c1ccccc1COc1cccc(C(F)(F)F)n1` [Picoxystrobin, reference compound], for which the “MIC (A)” value in the series on Botrytis cinerea (setting [6]) was found to be 250 µg/mL; with Sclerotinia sclerotiorum (7 days incubation) it was 500 µg/mL; in the series on Alternaria solani (Compound A alone, incubation period of 7 days) it was 500 µg/mL.
